{"source": "patent US12365696B2", "about": "“Small-molecule focal adhesion kinase (FAK) inhibitors” (DANA-FARBER CANCER INSTITUTE, INC., priority 2019, dated 2025)", "assay_in_all_cases": "KINOMEscan", "format_in_all_cases": "binding", "key": {"ABL2": {"target": "ABL2 (Homo sapiens (Human), UniProt P42684)", "settings": "ABL2, 10000 nM; read-out: Percent Control"}, "ACVR1B": {"target": "ACVR1B (Homo sapiens (Human), UniProt P36896)", "settings": "10000 nM, read-out: Percent Control"}, "ACVR2A": {"target": "ACVR2A (Homo sapiens (Human), UniProt P27037)", "settings": "10000 nM, read-out: Percent Control"}, "CAMK1G": {"target": "CAMK1G (Homo sapiens (Human), UniProt Q96NX5)", "sequence (Q96NX5 whole entry)": "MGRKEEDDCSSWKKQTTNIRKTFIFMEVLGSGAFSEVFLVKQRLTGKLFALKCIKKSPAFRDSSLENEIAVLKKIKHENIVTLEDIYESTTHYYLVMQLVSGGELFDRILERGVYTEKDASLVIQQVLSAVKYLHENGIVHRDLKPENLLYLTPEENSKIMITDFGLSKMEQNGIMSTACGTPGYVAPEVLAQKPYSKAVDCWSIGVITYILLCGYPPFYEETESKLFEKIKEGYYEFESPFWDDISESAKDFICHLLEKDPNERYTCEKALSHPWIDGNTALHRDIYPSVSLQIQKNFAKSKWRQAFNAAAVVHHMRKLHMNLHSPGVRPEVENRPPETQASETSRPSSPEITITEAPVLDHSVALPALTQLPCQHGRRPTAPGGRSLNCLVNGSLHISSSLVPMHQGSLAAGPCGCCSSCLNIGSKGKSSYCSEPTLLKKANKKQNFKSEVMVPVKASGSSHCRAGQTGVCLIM", "settings": "10000 nM, read-out: Percent Control"}, "DAPK3": {"target": "DAPK3 (Homo sapiens (Human), UniProt O43293)", "settings": "DAPK3, 10000 nM; read-out: Percent Control"}, "DDR1": {"target": "DDR1 (Homo sapiens (Human), UniProt Q08345)", "settings": "DDR1, 10000 nM; read-out: Percent Control"}, "[1]": {"target": "EGFR(L747-E749del, A750P) (Homo sapiens (Human), UniProt P00533, A750P/DEL747-749)", "settings": "10000 nM, read-out: Percent Control"}, "EGFR(S752-I759del)": {"target": "EGFR(S752-I759del) (Homo sapiens (Human), UniProt P00533, DEL752-759)", "settings": "10000 nM, read-out: Percent Control"}, "EPHA8": {"target": "EPHA8 (Homo sapiens (Human), UniProt P29322)", "settings": "EPHA8, 10000 nM; read-out: Percent Control"}, "ERK5": {"target": "ERK5 (Homo sapiens (Human), UniProt Q13164)", "settings": "ERK5, 10000 nM; read-out: Percent Control"}, "FGFR1": {"target": "FGFR1 (Homo sapiens (Human), UniProt P11362)", "settings": "FGFR1, 10000 nM; read-out: Percent Control"}, "FLT3(ITD, D835V)": {"system": "FLT3(ITD, D835V)", "settings": "10000 nM"}, "LRRK2(G2019S)": {"target": "LRRK2(G2019S) (Homo sapiens (Human), UniProt Q5S007, G2019S)", "settings": "10000 nM, read-out: Percent Control"}, "MAP3K15": {"target": "MAP3K15 (Homo sapiens (Human), UniProt Q6ZN16)", "settings": "MAP3K15, 10000 nM; read-out: Percent Control"}, "MAP3K2": {"target": "MAP3K2 (Homo sapiens (Human), UniProt Q9Y2U5)", "sequence (Q9Y2U5 whole entry)": "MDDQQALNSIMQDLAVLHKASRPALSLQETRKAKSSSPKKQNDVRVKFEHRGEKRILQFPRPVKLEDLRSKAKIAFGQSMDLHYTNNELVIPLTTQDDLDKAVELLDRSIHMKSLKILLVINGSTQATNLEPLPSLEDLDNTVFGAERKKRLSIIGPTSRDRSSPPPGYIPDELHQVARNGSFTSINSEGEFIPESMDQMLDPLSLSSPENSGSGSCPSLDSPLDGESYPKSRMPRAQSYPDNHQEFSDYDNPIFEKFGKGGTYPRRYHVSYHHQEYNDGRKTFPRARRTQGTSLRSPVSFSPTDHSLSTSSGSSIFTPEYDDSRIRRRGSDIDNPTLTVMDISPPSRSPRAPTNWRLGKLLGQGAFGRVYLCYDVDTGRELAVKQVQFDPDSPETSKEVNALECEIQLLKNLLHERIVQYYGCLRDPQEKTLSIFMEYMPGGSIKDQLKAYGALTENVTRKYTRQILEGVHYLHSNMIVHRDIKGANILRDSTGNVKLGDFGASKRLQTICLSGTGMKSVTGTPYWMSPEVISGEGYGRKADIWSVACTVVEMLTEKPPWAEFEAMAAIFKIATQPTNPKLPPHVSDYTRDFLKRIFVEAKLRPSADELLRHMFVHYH", "settings": "MAP3K2, 10000 nM; read-out: Percent Control"}, "MAST1": {"target": "MAST1 (Homo sapiens (Human), UniProt Q9Y2H9)", "settings": "MAST1, 10000 nM; read-out: Percent Control"}, "MEK1": {"target": "MEK1 (Homo sapiens (Human), UniProt Q02750)", "sequence (Q02750 whole entry)": "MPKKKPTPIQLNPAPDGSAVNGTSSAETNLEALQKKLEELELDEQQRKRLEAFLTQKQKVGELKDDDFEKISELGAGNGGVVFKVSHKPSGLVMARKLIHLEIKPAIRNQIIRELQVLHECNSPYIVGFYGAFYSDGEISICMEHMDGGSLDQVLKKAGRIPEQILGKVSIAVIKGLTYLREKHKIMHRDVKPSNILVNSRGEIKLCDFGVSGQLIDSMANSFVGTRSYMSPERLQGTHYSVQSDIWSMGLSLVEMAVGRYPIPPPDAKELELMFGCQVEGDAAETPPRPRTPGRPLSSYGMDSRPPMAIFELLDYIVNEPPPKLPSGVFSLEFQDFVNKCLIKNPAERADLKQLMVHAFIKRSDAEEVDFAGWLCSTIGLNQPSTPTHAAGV", "settings": "MEK1, 10000 nM; read-out: Percent Control"}, "NIM1": {"target": "NIM1 (Homo sapiens (Human), UniProt Q8IY84)", "settings": "NIM1, 10000 nM; read-out: Percent Control"}, "PCTK3": {"target": "PCTK3 (Homo sapiens (Human), UniProt Q07002)", "settings": "PCTK3, 10000 nM; read-out: Percent Control"}, "PIK3CA(E545A)": {"target": "PIK3CA(E545A) (Homo sapiens (Human), UniProt P42336, E545A)", "sequence (P42336 whole entry E545A)": "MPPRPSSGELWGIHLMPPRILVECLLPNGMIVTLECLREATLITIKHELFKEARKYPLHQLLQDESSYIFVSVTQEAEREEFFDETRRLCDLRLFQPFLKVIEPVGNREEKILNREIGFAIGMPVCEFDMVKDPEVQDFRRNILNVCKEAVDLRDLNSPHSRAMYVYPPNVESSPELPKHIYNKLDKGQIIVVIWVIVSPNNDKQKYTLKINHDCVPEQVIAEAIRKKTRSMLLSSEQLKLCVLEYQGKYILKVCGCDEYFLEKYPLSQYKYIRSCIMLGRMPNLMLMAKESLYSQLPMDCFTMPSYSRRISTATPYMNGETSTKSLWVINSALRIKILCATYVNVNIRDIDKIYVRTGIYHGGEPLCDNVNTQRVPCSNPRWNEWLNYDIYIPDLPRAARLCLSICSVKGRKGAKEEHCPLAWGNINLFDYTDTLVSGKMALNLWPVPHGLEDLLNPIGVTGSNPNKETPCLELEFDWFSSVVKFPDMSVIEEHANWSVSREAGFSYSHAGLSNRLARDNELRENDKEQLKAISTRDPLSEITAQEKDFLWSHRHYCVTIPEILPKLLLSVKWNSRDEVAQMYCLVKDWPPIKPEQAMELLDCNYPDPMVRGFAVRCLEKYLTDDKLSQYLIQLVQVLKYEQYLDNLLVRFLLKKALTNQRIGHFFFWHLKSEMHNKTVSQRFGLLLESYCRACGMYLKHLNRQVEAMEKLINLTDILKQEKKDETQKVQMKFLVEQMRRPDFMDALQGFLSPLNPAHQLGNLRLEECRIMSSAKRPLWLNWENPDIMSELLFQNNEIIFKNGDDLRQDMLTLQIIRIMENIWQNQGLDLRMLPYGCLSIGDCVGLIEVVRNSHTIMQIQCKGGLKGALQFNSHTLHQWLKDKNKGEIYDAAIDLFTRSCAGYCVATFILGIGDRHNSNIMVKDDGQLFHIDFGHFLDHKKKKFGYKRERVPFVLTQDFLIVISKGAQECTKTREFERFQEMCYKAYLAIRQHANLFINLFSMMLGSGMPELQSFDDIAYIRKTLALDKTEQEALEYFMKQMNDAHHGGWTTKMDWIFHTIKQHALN", "settings": "10000 nM, read-out: Percent Control"}, "PIM1": {"target": "PIM1 (Homo sapiens (Human), UniProt P11309)", "settings": "PIM1, 10000 nM; read-out: Percent Control"}, "PIP5K2B": {"target": "PIP5K2B (Homo sapiens (Human), UniProt P78356)", "sequence (P78356 whole entry)": "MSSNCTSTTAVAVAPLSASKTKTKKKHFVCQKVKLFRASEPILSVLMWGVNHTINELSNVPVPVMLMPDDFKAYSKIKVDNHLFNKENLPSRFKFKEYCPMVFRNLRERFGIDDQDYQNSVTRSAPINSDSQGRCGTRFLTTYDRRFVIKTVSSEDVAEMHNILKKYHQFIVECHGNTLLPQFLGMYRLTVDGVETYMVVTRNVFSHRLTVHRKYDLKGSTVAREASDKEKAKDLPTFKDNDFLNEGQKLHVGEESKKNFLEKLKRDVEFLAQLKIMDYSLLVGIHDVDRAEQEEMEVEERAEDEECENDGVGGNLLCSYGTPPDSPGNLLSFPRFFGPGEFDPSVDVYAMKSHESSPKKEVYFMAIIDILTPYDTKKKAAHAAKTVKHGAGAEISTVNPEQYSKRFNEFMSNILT", "settings": "10000 nM, read-out: Percent Control"}, "PLK3": {"target": "PLK3 (Homo sapiens (Human), UniProt Q9H4B4)", "settings": "PLK3, 10000 nM; read-out: Percent Control"}, "PRKR": {"target": "PRKR (Homo sapiens (Human), UniProt P19525)", "settings": "10000 nM, read-out: Percent Control"}, "PYK2": {"target": "PYK2 (Homo sapiens (Human), UniProt Q14289)", "sequence (Q14289 whole entry)": "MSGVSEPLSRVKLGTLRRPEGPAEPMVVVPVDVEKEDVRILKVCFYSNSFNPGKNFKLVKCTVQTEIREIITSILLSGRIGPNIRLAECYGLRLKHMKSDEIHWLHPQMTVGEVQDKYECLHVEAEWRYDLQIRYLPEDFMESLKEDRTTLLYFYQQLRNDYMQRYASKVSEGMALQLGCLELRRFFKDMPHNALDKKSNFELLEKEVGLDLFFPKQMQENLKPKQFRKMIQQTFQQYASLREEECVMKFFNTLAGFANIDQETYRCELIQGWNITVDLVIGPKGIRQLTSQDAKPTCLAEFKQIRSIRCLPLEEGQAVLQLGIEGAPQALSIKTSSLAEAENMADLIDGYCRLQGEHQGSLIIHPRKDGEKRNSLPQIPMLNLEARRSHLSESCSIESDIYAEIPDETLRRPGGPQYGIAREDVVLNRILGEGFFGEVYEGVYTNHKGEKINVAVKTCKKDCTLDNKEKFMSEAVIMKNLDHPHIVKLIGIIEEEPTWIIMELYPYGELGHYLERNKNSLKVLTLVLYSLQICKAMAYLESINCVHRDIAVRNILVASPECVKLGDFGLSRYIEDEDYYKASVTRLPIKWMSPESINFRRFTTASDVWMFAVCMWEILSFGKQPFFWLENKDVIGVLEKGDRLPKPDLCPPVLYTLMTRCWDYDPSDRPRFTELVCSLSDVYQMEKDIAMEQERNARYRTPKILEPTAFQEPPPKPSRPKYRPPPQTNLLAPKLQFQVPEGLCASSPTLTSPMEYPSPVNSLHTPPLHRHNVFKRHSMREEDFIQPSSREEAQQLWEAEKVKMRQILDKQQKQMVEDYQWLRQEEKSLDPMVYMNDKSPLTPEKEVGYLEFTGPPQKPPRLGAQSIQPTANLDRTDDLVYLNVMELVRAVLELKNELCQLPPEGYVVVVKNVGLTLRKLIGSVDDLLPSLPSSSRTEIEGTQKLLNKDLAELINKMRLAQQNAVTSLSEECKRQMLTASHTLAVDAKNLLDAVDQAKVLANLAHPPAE", "settings": "PYK2, 10000 nM; read-out: Percent Control"}, "[2]": {"target": "RPS6KA5(Kin.Dom.1-N-terminal) (Homo sapiens (Human), UniProt O75582)", "sequence (O75582 49-318)": "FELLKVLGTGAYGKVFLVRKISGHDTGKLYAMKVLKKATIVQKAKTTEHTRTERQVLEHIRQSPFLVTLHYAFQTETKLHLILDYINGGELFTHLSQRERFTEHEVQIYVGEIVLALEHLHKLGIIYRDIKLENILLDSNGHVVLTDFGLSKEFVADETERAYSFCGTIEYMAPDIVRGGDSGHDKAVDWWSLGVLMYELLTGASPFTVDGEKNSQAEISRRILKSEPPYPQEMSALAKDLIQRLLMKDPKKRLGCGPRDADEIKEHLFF", "settings": "10000 nM, read-out: Percent Control"}, "[3]": {"target": "RSK3(Kin.Dom.1-N-terminal) (Homo sapiens (Human), UniProt Q15349)", "settings": "10000 nM, read-out: Percent Control"}, "[4]": {"target": "RSK4(Kin.Dom.1-N-terminal) (Homo sapiens (Human), UniProt Q9UK32)", "settings": "10000 nM, read-out: Percent Control"}, "[5]": {"target": "RSK4(Kin.Dom.2-C-terminal) (Homo sapiens (Human), UniProt Q9UK32)", "sequence (Q9UK32 426-683)": "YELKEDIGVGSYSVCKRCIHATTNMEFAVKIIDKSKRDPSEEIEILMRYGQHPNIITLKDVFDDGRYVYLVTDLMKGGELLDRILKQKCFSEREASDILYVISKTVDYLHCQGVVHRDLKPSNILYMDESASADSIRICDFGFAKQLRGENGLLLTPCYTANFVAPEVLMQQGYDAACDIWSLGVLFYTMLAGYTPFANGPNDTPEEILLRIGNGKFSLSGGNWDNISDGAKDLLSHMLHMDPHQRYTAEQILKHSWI", "settings": "10000 nM, read-out: Percent Control"}, "SGK3": {"target": "SGK3 (Homo sapiens (Human), UniProt Q96BR1)", "sequence (Q96BR1 whole entry)": "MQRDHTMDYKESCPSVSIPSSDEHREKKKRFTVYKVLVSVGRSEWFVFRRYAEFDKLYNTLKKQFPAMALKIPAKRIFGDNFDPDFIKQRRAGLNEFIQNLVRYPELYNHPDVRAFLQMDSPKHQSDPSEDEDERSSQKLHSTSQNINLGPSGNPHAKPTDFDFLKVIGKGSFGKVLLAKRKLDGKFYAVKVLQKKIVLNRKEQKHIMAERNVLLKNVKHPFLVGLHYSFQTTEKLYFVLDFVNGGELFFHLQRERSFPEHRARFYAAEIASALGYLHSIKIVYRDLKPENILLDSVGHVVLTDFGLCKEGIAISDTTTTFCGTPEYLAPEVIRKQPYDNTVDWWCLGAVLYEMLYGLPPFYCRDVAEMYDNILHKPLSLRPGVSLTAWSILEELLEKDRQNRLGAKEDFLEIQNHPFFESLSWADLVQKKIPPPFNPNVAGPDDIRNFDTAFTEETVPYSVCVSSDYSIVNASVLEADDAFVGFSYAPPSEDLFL", "settings": "SGK3, 10000 nM; read-out: Percent Control"}, "TIE1": {"target": "TIE1 (Homo sapiens (Human), UniProt P35590)", "settings": "TIE1, 10000 nM; read-out: Percent Control"}, "TRKA": {"target": "TRKA (Homo sapiens (Human), UniProt P04629)", "settings": "10000 nM, read-out: Percent Control"}, "YSK4": {"target": "YSK4 (Homo sapiens (Human), UniProt Q56UN5)", "settings": "YSK4, 10000 nM; read-out: Percent Control"}, "ZAP70": {"target": "ZAP70 (Homo sapiens (Human), UniProt P43403)", "settings": "ZAP70, 10000 nM; read-out: Percent Control"}}, "data": [{"smiles": "COc1cc(N2CCC(N3CCN(C)CC3)CC2)ccc1Nc1ncc2c(n1)N(C)c1sc(C)nc1C(=O)N2", "note": "[Compound 3, 6-((2-methoxy-4-(4-(4-methylpiperazin-1-yl)piperidin-1-yl)phenyl)amino)-2,4-dimethyl-4,9-dihydro-10H-pyrimido[5,4-b]thiazolo[5,4-e][1,4]diazepin-10-one]", "values": [{"measurement": "remaining binding at 10 µM", "setting": "ABL2", "value": 69, "unit": "%"}, {"measurement": "remaining binding at 10 µM", "setting": "ACVR1B", "value": 80, "unit": "%"}, {"measurement": "remaining binding at 10 µM", "setting": "ACVR2A", "value": 76, "unit": "%"}, {"measurement": "remaining binding at 10 µM", "setting": "CAMK1G", "value": 74, "unit": "%"}, {"measurement": "remaining binding at 10 µM", "setting": "DAPK3", "value": 62, "unit": "%"}, {"measurement": "remaining binding at 10 µM", "setting": "DDR1", "value": 89, "unit": "%"}, {"measurement": "remaining binding at 10 µM", "setting": "[1]", "value": 95, "unit": "%"}, {"measurement": "remaining binding at 10 µM", "setting": "EGFR(S752-I759del)", "value": 47, "unit": "%"}, {"measurement": "remaining binding at 10 µM", "setting": "EPHA8", "value": 64, "unit": "%"}, {"measurement": "remaining binding at 10 µM", "setting": "ERK5", "value": 80, "unit": "%"}, {"measurement": "remaining binding at 10 µM", "setting": "FGFR1", "value": 75, "unit": "%"}, {"measurement": "Percent Control", "setting": "FLT3(ITD, D835V)", "value": 100, "unit": "%"}, {"measurement": "remaining binding at 10 µM", "setting": "LRRK2(G2019S)", "value": 100, "unit": "%"}, {"measurement": "remaining binding at 10 µM", "setting": "MAP3K15", "value": 90, "unit": "%"}, {"measurement": "remaining binding at 10 µM", "setting": "MAP3K2", "value": 100, "unit": "%"}, {"measurement": "remaining binding at 10 µM", "setting": "MAST1", "value": 84, "unit": "%"}, {"measurement": "remaining binding at 10 µM", "setting": "MEK1", "value": 100, "unit": "%"}, {"measurement": "remaining binding at 10 µM", "setting": "NIM1", "value": 100, "unit": "%"}, {"measurement": "remaining binding at 10 µM", "setting": "PCTK3", "value": 90, "unit": "%"}, {"measurement": "remaining binding at 10 µM", "setting": "PIK3CA(E545A)", "value": 84, "unit": "%"}, {"measurement": "remaining binding at 10 µM", "setting": "PIM1", "value": 70, "unit": "%"}, {"measurement": "remaining binding at 10 µM", "setting": "PIP5K2B", "value": 76, "unit": "%"}, {"measurement": "remaining binding at 10 µM", "setting": "PLK3", "value": 52, "unit": "%"}, {"measurement": "remaining binding at 10 µM", "setting": "PRKR", "value": 100, "unit": "%"}, {"measurement": "remaining binding at 10 µM", "setting": "PYK2", "value": 41, "unit": "%"}, {"measurement": "remaining binding at 10 µM", "setting": "[2]", "value": 70, "unit": "%"}, {"measurement": "remaining binding at 10 µM", "setting": "[3]", "value": 83, "unit": "%"}, {"measurement": "remaining binding at 10 µM", "setting": "[4]", "value": 100, "unit": "%"}, {"measurement": "remaining binding at 10 µM", "setting": "[5]", "value": 69, "unit": "%"}, {"measurement": "remaining binding at 10 µM", "setting": "SGK3", "value": 100, "unit": "%"}, {"measurement": "remaining binding at 10 µM", "setting": "TIE1", "value": 80, "unit": "%"}, {"measurement": "remaining binding at 10 µM", "setting": "TRKA", "value": 100, "unit": "%"}, {"measurement": "remaining binding at 10 µM", "setting": "YSK4", "value": 100, "unit": "%"}, {"measurement": "remaining binding at 10 µM", "setting": "ZAP70", "value": 100, "unit": "%"}]}, {"smiles": "COc1cc(N2CCC(N3CCN(C)CC3)CC2)ccc1Nc1ncc2c(n1)N(C)c1sc(C)nc1C(=O)N2C", "note": "[Compound 5, 6-((2-methoxy-4-(4-(4-methylpiperazin-1-yl)piperidin-1-yl)phenyl)amino)-2,4,9-trimethyl-4,9-dihydro-10H-pyrimido[5,4-b]thiazolo[5,4-e][1,4]diazepin-10-one]", "values": [{"measurement": "remaining binding at 10 µM", "setting": "ABL2", "value": 95, "unit": "%"}, {"measurement": "remaining binding at 10 µM", "setting": "ACVR1B", "value": 95, "unit": "%"}, {"measurement": "remaining binding at 10 µM", "setting": "ACVR2A", "value": 97, "unit": "%"}, {"measurement": "remaining binding at 10 µM", "setting": "CAMK1G", "value": 95, "unit": "%"}, {"measurement": "remaining binding at 10 µM", "setting": "DAPK3", "value": 97, "unit": "%"}, {"measurement": "remaining binding at 10 µM", "setting": "DDR1", "value": 100, "unit": "%"}, {"measurement": "remaining binding at 10 µM", "setting": "[1]", "value": 97, "unit": "%"}, {"measurement": "remaining binding at 10 µM", "setting": "EGFR(S752-I759del)", "value": 100, "unit": "%"}, {"measurement": "remaining binding at 10 µM", "setting": "EPHA8", "value": 100, "unit": "%"}, {"measurement": "remaining binding at 10 µM", "setting": "ERK5", "value": 30, "unit": "%"}, {"measurement": "remaining binding at 10 µM", "setting": "FGFR1", "value": 90, "unit": "%"}, {"measurement": "Percent Control", "setting": "FLT3(ITD, D835V)", "value": 100, "unit": "%"}, {"measurement": "remaining binding at 10 µM", "setting": "LRRK2(G2019S)", "value": 21, "unit": "%"}, {"measurement": "remaining binding at 10 µM", "setting": "MAP3K15", "value": 84, "unit": "%"}, {"measurement": "remaining binding at 10 µM", "setting": "MAP3K2", "value": 100, "unit": "%"}, {"measurement": "remaining binding at 10 µM", "setting": "MAST1", "value": 100, "unit": "%"}, {"measurement": "remaining binding at 10 µM", "setting": "MEK1", "value": 95, "unit": "%"}, {"measurement": "remaining binding at 10 µM", "setting": "NIM1", "value": 100, "unit": "%"}, {"measurement": "remaining binding at 10 µM", "setting": "PCTK3", "value": 98, "unit": "%"}, {"measurement": "remaining binding at 10 µM", "setting": "PIK3CA(E545A)", "value": 100, "unit": "%"}, {"measurement": "remaining binding at 10 µM", "setting": "PIM1", "value": 97, "unit": "%"}, {"measurement": "remaining binding at 10 µM", "setting": "PIP5K2B", "value": 39, "unit": "%"}, {"measurement": "remaining binding at 10 µM", "setting": "PLK3", "value": 20, "unit": "%"}, {"measurement": "remaining binding at 10 µM", "setting": "PRKR", "value": 65, "unit": "%"}, {"measurement": "remaining binding at 10 µM", "setting": "PYK2", "value": 85, "unit": "%"}, {"measurement": "remaining binding at 10 µM", "setting": "[2]", "value": 91, "unit": "%"}, {"measurement": "remaining binding at 10 µM", "setting": "[3]", "value": 100, "unit": "%"}, {"measurement": "remaining binding at 10 µM", "setting": "[4]", "value": 91, "unit": "%"}, {"measurement": "remaining binding at 10 µM", "setting": "[5]", "value": 67, "unit": "%"}, {"measurement": "remaining binding at 10 µM", "setting": "SGK3", "value": 100, "unit": "%"}, {"measurement": "remaining binding at 10 µM", "setting": "TIE1", "value": 96, "unit": "%"}, {"measurement": "remaining binding at 10 µM", "setting": "TRKA", "value": 100, "unit": "%"}, {"measurement": "remaining binding at 10 µM", "setting": "YSK4", "value": 93, "unit": "%"}, {"measurement": "remaining binding at 10 µM", "setting": "ZAP70", "value": 100, "unit": "%"}]}]}
